The source made the active and inactive calls. The rule behind the calls is not given here.
Assays:
[1] = system: Cell membrane; test: Disruption of cell membrane in methicillin-resistant Staphylococcus aureus ATCC33591 assessed as decrease in intracellular ATP content at 0.125 to 0.25 ug/ml incubated for 30 mins by luminescence based analysis; details: dose 0.125-0.25 µg/ml
[2] = system: Cell membrane; test: Disruption of cell membrane in methicillin-resistant Staphylococcus aureus ATCC33591 assessed as leakage of bacterial cell contents by measuring increase in conductivity of bacterial solution at MIC measured for 6 hrs by conductivity meter analysis
[3] = Observed apparent volume of distribution during terminal phase in Sprague-Dawley rat at 10 mg/kg, po; format: ADME, organism-based; details: in vivo, read-out: Vz/F_obs
[4] = system: Cell membrane; test: Disruption of cell membrane in Escherichia coli ATCC25922 assessed as induction of cell death by measuring increase in propidium iodide fluorescence intensity at 0.5 ug/ml incubated for 2 hrs by bright field microscopy; format: subcellular; details: dose 0.5 µg/ml
[5] = Observed apparent oral clearance in Sprague-Dawley rat at 10 mg/kg, po; format: ADME, organism-based; details: in vivo
[6] = system: Escherichia coli; test: Antibacterial activity against Escherichia coli ATCC25922 assessed as post-antibiotic effect at 0.25 ug/ml incubated for 1 hr followed by washing and incubation in MHB medium for 10 hrs and later cultured on agar plate for overnight; format: functional; details: dose 0.25 µg/ml
[7] = system: Mesomycoplasma hyopneumoniae; test: Anti-mycoplasma activity against Mycoplasma hyopneumoniae J NCTC10110 assessed as inhibition of bacterial growth incubated for 6 to 7 days by broth microdilution method; format: functional; details: time 6-7 day
[8] = Drug uptake in Sprague-Dawley rat kidney at 5 mg/kg, iv measured for 6 hrs by LC-MS/MS analysis; format: ADME, organism-based; details: in vivo
[9] = system: Cell membrane; test: Disruption of cell membrane in methicillin-resistant Staphylococcus aureus ATCC33591 assessed as disrupted, furrowed, crumpled cell envelope at 0.125 to 0.5 ug/ml incubated for 2 hrs by propidium iodide staining based confocal laser scanning microscopy; format: subcellular; details: dose 0.125-0.5 µg/ml
[10] = system: Mycoplasmoides pneumoniae; test: Anti-mycoplasma activity against Mycoplasma pneumoniae M129 ATCC29342 assessed as inhibition of bacterial growth incubated for 3 to 5 days by broth microdilution method; format: functional; details: time 3-5 day
[11] = biological target: Solute carrier family 22 member 1 (Homo sapiens, UniProt O15245); test: Substrate activity at human OCT1 transfected in HEK293 cells assessed as increase in intracellular drug content at 100 uM measured after 5 mins; format: ADME, cell-based; details: hek293, 5 min
[12] = system: Cell membrane; test: Disruption of cell membrane in Escherichia coli ATCC25922 assessed as induction of cell death by measuring increase in propidium iodide fluorescence intensity at 0.5 ug/ml incubated for 2 hrs by fluorescence field microscopy; format: subcellular; details: dose 0.5 µg/ml
[13] = system: Escherichia coli; test: Antibacterial activity against Escherichia coli ATCC25922 infected in pyelonephritis C57BL/6 mouse model assessed as decrease in bacterial load in kidney at 3 to 10 mg/kg, iv qd for 3 days administered at 2 days post-infection; format: functional, organism-based; details: dose 3-10 mg/kg, time 3.0 day
[14] = system: Enterococcus; test: Antibacterial activity against vancomycin-resistant Enterococcus 80 assessed as inhibition of bacterial growth incubated for 24 hrs by broth microdilution method; format: functional
[15] = system: Mycoplasmoides gallisepticum; test: Anti-mycoplasma activity against Mycoplasma gallisepticum NCTC10115 assessed as inhibition of bacterial growth incubated for 3 to 5 days by broth microdilution method; format: functional; details: time 3-5 day
[16] = Observed apparent volume of distribution in Sprague-Dawley rat at 5 mg/kg, iv; format: ADME, organism-based; details: in vivo, read-out: Vz
[17] = system: Mycoplasma genitalium; test: Anti-mycoplasma activity against Mycoplasma genitalium G37 ATCC33530 assessed as inhibition of bacterial growth incubated for 7 to 14 days by broth microdilution method; format: functional; details: Mycoplasmoides genitalium, time 7-14 day
[18] = system: Staphylococcus aureus; test: Antibacterial activity against methicillin-resistant Staphylococcus aureus 222 assessed as inhibition of bacterial growth incubated for 24 hrs by broth microdilution method; format: functional
[19] = system: Escherichia coli; test: Antibiofilm activity against Escherichia coli ATCC25922 assessed as eradication of preformed biofilms incubated for 24 hrs with preformed biofilms by crystal violet staining based analysis; format: functional, organism-based; details: dose 0.125-0.5 µg/ml
[20] = system: Escherichia coli; test: Antibacterial activity against Escherichia coli ATCC 25922 assessed as inhibition of bacterial growth incubated for 24 hrs by broth microdilution method; format: functional
[21] = system: Staphylococcus aureus; test: Antibacterial activity against methicillin-resistant Staphylococcus aureus 206 assessed as inhibition of bacterial growth incubated for 24 hrs by broth microdilution method; format: functional
[22] = Half-life in Sprague-Dawley rat at 10 mg/kg, po; format: ADME, organism-based; details: in vivo
[23] = system: Escherichia coli; test: Antibacterial activity against Escherichia coli ATCC25922 infected in pyelonephritis C57BL/6 mouse model assessed as decrease in MPO activity in kidney at 3 to 10 mg/kg, iv qd for 3 days administered at 2 days post-infection; format: functional, organism-based; details: dose 3-10 mg/kg, time 3.0 day
[24] = system: Escherichia coli; test: Antibacterial activity against Escherichia coli ATCC25922 infected in pyelonephritis C57BL/6 mouse model assessed as saturated bacterial clearance at >=5 mg/kg, iv qd for 3 days administered at 2 days post-infection; format: functional, organism-based; details: time 3.0 day
[25] = system: Cell membrane; test: Disruption of cell membrane in methicillin-resistant Staphylococcus aureus ATCC33591 assessed as increase in extracellular ATP content at 0.125 to 0.25 ug/ml incubated for 30 mins by luminescence based analysis; details: dose 0.125-0.25 µg/ml
[26] = system: Cell membrane; test: Disruption of cell membrane in Escherichia coli ATCC25922 assessed as decrease in intracellular pH at 0.125 ug/ml incubated for 30 mins by cFDA-SE probe based fluorescence analysis; details: dose 0.125 µg/ml
[27] = biological target: T1, Solute carrier family 22 member 2 (Homo sapiens, UniProt O15244); test: Inhibition of human OCT2 transfected in HEK293 cells assessed as decrease in intracellular ASP accumulation […] incubated for 10 mins followed by incubation with ASP for 5 mins by fluorescence based analysis; format: cell-based; details: hek293, 0.25 h, time 15 min
T1 sequence (O15244 whole entry): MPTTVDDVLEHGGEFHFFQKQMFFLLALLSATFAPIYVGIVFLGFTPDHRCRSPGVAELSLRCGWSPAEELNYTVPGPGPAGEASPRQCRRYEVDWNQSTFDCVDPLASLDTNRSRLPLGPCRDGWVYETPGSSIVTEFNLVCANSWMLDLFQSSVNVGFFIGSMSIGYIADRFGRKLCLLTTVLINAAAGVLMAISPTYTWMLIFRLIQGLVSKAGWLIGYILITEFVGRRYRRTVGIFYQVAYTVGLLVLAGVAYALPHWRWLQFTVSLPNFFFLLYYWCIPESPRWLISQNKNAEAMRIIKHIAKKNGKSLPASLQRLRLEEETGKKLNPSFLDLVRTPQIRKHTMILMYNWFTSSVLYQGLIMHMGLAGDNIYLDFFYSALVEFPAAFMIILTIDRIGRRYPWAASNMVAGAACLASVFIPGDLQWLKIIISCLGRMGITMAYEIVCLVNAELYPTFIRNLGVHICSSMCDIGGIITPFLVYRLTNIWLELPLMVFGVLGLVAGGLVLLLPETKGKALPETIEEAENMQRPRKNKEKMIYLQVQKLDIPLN

[28] = system: Staphylococcus aureus; test: Antibacterial activity against methicillin-resistant Staphylococcus aureus ATCC33591 infected in systemic intraperitoneal infection Kunming mouse model assessed as decrease in inflammation, neutrophil infiltration, alveolar structure destruction, leukocyte infiltration, interstitial thickening in lungs at 5 mg/kg, ip treated at 1 hr post-infection and measured after 7 days by Hematoxylin-Eosin staining based analysis; format: functional, organism-based; details: time 7.0 day

Sequence of Solute carrier family 22 member 1 (O15245 whole entry): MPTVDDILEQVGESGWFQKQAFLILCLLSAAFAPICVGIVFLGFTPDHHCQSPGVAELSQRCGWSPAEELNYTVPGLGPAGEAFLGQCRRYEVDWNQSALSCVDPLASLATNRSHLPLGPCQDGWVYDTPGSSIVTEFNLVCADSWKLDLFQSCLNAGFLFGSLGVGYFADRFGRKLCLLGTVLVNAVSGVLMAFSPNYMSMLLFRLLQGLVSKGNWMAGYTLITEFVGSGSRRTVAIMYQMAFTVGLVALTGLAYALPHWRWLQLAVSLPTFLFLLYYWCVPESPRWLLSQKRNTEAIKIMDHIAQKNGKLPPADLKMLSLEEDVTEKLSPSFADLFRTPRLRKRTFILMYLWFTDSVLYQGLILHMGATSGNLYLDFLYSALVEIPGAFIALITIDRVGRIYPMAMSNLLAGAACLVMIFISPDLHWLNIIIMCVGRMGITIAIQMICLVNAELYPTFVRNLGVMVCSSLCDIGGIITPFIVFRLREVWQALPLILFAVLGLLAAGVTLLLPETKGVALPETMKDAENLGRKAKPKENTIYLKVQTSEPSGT

Question: Which results are given for `C=C[C@]1(C)C[C@@H](OC(=O)CSc2nc3cc[n+](Cc4ccc(C)cc4)cc3[nH]2)[C@]2(C)[C@H](C)CC[C@]3(CCC(=O)[C@H]32)[C@@H](C)[C@@H]1O.[Br-]`?
Answer: Activity [1]: Active; Activity [2]: Active; Vd/F [3]: 1.43 L/kg; Activity [4]: Active; CL/F [5]: 10.5 mL/min/kg; PAE [6]: 1.78 h; MIC [7]: < 0.04 µg/mL; Drug uptake [8]: Active; Activity [9]: Active; MIC [10]: < 0.008 µg/mL; Activity [11]: Active; Activity [12]: Active; Activity [13]: Active; MIC [14]: 4 µg/mL; MIC [15]: < 0.04 µg/mL; Vd [16]: 0.511 L/kg; MIC [17]: < 0.04 µg/mL; MIC [18]: 4 µg/mL; Activity [19]: Dose-dependent-effect; MIC [20]: < 1 µg/mL; MIC [21]: 1 µg/mL; half-life [22]: 1.57 h; Activity [23]: Active; Activity [24]: Active; Activity [25]: Active; Activity [26]: Active; inhibition (INH) [27]: Not_active; Activity [28]: Active; Nearly Restoration Of Normal Histology Observed
